Measurements published in patent publication US6297266A, “Thiazole derivatives” (Hoffmann-La Roche Inc., priority 1998, dated 2001).

Target: T1, vitronectin receptor αvβ3 (Homo sapiens, UniProt P05106+P06756)
T1 construct: Human placenta is stored at -80° C. immediately after its excision; from tissue; host or cells: human placenta
Assay: inhibition of the binding of fibrinogen to vitronectin receptor αvβ3 (ELISA)
Settings: fibrinogen binding to immobilized αvβ3 from human placenta, pH 7.4, read-out: VNR IC50
Procedure: The inhibition of the binding of adhesive proteins such as e.g. fibrinogen to vitronectin receptors (such as e.g. αvβ3, αvβ5, αvβ6, αvβ8, etc. or to the fibrinogen receptor (αIIbβ3) by compounds of formula (I) can be determined as described by L. Alig et al. (J.Med.Chem. 1992, 35, 4393-4407).
In detail thereto, the wells of microtiter plates (Nunc-Immunoplate MaxiSorp) were coated overnight at 4° C. with the vitronectin receptor αvβ3 (from human placenta, 100 μl/well) in a buffer system with 150 mmol/1 NaCl, 1 mmol/CaCl2, 1 mmol/1 MgCl2, 0.0005% Triton X-100 and 20 mmol/1 Tris HCl, pH 7.4. The non-specific binding sites were blocked by incubation with 3.5% bovine serum albumin (BSA from Fluka) at 20° C. for at least 1 h. Before the beginning of the test the plates were washed in each case once with 150 mmol/1 NaCl, 1 mmol/1 CaCl2, 1 mmol/1 MgCl2 and 20 mmol/1 Tris HCl, pH 7.4 (buffer A). The thus-coated plates can be stored for at least 2 months in the presence of 0.05% NaN3 (in buffer A) at 4° C. in a humidity chamber without loss of binding activity. Fibrinogen (IMCO, free from fibronectin) was diluted to 1.5 μg/ml in buffer A in the presence of 1% BSA. The wells coated with the receptor were incubated with fibrinogen (100 μl/well) overnight at room temperature in the absence of or in the presence of increasing concentrations of RGDS (as the reference substance, H-Arg-Gly-Asp-Ser-OH) or the compounds to be measured. Non-bound fibrinogen was removed by three-fold washing with buffer A, bound fibrinogen was detected by an enzyme linked immunosorbent assay (ELISA) procedure. Antibodies of rabbits directed against human fibrinogen (Dakopatts, Denmark), diluted in buffer A in the presence of 0.1% BSA, were added at room temperature for 1 h., followed by incubation with biotinylated antibodies directed against rabbit immunoglobulin (Amersham) for 30 min. […] After addition of the peroxidase substrate ABTS (2,2'-azino-bis(3-ethylbenzothiazoline-6-sulphonic acid), Boehringer Mannheim) the enzyme activity was measured with a multichannel photometer (UVmax, Molecular Devices). […]

T1 sequence (P06756 31-889 limits assumed): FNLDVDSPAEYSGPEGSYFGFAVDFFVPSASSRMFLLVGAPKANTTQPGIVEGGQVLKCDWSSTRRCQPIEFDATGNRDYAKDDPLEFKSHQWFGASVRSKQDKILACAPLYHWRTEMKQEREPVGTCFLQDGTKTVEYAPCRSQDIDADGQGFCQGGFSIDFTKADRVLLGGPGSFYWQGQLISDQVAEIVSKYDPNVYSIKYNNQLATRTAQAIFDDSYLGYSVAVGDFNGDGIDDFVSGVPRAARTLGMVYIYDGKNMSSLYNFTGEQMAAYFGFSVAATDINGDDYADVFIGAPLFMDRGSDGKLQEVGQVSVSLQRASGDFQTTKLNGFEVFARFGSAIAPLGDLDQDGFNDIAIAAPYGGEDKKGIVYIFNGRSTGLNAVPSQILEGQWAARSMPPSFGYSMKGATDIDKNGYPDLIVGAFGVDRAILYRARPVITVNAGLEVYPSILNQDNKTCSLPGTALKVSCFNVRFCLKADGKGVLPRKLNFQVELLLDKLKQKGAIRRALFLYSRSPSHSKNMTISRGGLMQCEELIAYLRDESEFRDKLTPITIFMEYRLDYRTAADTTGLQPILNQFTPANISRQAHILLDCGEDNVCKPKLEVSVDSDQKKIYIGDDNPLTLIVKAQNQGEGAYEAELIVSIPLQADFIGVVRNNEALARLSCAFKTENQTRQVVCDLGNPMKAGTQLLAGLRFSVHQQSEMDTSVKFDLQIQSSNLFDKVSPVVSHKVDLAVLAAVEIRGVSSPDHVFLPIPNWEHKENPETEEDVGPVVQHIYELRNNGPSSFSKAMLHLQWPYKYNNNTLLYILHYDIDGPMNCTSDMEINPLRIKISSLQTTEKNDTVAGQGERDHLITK
T1 sequence (P06756 891-1048 limits assumed): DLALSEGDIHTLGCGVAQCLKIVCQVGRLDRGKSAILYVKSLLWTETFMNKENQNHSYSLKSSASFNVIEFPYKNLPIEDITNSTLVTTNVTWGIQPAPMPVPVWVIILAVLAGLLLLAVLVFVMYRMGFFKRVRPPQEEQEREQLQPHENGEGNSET
T1 sequence (P05106 27-788): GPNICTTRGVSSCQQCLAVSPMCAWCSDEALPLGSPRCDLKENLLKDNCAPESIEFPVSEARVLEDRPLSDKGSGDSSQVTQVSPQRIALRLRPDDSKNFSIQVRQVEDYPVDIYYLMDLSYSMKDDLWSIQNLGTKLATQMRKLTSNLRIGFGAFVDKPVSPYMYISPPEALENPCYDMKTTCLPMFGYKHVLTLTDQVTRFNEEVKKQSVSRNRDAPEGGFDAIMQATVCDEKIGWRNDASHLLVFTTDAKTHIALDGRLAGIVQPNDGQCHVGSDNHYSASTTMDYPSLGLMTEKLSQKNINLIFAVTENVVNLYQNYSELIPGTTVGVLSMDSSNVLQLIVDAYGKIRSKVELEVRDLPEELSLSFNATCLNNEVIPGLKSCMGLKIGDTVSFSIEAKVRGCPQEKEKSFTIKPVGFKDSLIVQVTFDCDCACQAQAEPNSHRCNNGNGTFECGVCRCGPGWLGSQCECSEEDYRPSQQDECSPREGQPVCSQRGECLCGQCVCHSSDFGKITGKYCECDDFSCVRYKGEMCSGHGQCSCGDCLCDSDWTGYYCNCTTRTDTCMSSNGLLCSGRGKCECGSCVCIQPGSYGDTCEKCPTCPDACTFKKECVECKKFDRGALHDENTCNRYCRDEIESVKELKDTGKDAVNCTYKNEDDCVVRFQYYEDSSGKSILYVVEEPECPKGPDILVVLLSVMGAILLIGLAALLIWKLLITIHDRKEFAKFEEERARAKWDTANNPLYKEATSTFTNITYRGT

IC50 [nM]	Compound
1.3	O=C(O)COc1ccc(NC(=O)c2csc(NC(=O)NCc3ccccc3)n2)cc1C(=O)O [5-{[2-(3-benzyl-ureido)-thiazole-4-carbonyl]-amino}-2-carboxymethoxy-benzoic acid]
0.2	COc1cc(NC(=O)c2csc(NC(=O)NCc3ccccc3)n2)ccc1OCC(=O)O [(4-{[2-(3-benzyl-ureido)-thiazole-4-carbonyl]-amino}-2-methoxy-phenoxy)-acetic acid]
1	O=C(O)COc1ccc(NC(=O)c2csc(NC(=O)NCc3ccccc3)n2)cc1 [[4-[[2-(3-benzyl-ureido)-thiazole-4-carbonyl]-amino]-phenoxy]-acetic acid]
